In the assay the target is T1, PI3Kδ (Homo sapiens, UniProt O00329).
T1 construct: Full length p110 subunits of PI3k α, β and δ, N-terminally labeled with polyHis tag; polyHis (N); made in house; host or cells: Sf9 insect cells (baculovirus)
T1 sequence (O00329 whole entry): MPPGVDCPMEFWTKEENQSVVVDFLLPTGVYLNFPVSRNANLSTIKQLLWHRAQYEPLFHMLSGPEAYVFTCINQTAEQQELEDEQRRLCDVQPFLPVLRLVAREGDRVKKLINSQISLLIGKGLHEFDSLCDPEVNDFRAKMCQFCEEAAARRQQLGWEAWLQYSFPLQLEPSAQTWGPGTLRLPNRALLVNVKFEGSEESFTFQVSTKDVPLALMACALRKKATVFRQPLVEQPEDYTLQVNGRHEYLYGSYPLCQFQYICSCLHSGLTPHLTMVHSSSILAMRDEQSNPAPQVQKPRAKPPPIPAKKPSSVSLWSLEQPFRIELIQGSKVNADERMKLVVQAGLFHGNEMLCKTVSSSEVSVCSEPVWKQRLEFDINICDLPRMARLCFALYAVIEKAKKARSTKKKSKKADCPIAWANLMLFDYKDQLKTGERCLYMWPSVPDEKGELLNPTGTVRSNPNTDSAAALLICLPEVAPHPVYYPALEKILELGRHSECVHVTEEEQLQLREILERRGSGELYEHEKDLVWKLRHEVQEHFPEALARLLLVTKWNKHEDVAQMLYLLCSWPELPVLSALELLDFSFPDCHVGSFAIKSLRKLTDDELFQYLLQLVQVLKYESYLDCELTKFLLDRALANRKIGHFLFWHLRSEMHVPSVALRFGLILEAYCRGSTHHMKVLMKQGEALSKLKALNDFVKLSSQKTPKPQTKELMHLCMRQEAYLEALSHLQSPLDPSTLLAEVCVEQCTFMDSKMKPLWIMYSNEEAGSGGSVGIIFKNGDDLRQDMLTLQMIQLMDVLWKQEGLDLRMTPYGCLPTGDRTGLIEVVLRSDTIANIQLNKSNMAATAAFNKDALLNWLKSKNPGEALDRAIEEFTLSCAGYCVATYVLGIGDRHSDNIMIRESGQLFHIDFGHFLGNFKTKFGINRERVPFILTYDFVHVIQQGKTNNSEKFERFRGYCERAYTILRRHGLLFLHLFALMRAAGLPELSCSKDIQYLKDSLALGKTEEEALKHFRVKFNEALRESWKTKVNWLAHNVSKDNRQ
T1 sequence (P27986 whole entry partner): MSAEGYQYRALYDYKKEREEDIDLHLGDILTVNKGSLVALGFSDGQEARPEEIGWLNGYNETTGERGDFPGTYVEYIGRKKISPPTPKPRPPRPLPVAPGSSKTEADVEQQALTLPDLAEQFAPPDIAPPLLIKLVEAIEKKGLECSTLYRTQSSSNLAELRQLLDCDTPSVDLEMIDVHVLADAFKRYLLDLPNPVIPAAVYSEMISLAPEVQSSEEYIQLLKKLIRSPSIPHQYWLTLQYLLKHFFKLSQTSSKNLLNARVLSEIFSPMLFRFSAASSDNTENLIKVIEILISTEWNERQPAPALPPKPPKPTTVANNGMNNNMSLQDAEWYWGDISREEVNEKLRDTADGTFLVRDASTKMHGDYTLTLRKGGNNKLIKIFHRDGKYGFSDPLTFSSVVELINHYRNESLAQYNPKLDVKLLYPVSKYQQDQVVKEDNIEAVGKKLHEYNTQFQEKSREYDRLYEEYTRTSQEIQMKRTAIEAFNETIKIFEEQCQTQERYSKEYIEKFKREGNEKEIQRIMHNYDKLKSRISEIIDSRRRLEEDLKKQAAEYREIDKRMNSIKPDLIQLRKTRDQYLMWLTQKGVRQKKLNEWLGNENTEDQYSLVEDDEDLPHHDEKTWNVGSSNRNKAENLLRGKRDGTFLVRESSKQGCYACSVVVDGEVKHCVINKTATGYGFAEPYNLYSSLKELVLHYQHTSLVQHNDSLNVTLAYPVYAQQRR
Description: PI3Kδ Alphascreen assay. Type of assay: biochemical. A general note: Bead proximity is the source of the signal in Alpha formats.
For `Cc1c(N2CCN(C(=O)N(C)C)CC2)nc2cc(F)cc(F)c2c1N(C(=O)N(C)C)c1cncc(N2CCOCC2)c1` [4-(4-((dimethylcarbamoyl)(5-(4-morpholinyl)-3-pyridinyl)-amino)-5,7-difluoro-3-methyl-2-quinolinyl)-N,N-dimethyl-1-piperazinecarboxamide], the Ki (as a rule, the equilibrium dissociation constant of an inhibitor or competing ligand from its target) was 0.0816 µM. `Cc1c(-c2ccccn2)nc2cc(F)cc(F)c2c1Oc1cncc(N2CCOCC2)c1` [5,7-difluoro-3-methyl-4-((5-(4-morpholinyl)-3-pyridinyl)oxy)-2-(2-pyridinyl)quinoline] gave a Ki of 0.0519 µM. Then `Cc1c(N2CCN(C(=O)OCC(C)(C)C)CC2)nc2cc(F)cc(F)c2c1Nc1cncc(N2CCOCC2)c1` [2,2-dimethylpropyl 4-(5,7-difluoro-3-methyl-4-((5-(4-morpholinyl)-3-pyridinyl)amino)-2-quinolinyl)-1-piperazinecarboxylate], with 0.099 µM; and `Cc1c(N2CCC2=O)nc2cc(F)cc(F)c2c1Nc1cncc(N2CCOCC2)c1` [1-(5,7-difluoro-3-methyl-4-((5-(4-morpholinyl)-3-pyridinyl)-amino)-2-quinolinyl)-2-azetidinone], with 0.0272 µM; and `CCCN1CCN(c2nc3cc(F)cc(F)c3c(Nc3cncc(N4CCOCC4)c3)c2C)CC1=O` [4-(5,7-difluoro-3-methyl-4-((5-(4-morpholinyl)-3-pyridinyl)-amino)-2-quinolinyl)-1-propyl-2-piperazinone], with 0.00918 µM. Regarding `COc1ccc(-c2ncc(N3CCOCC3)cc2Nc2c(C)c(-c3cc(C)ccn3)nc3cc(F)cc(F)c23)cn1` [N-(5,7-difluoro-3-methyl-2-(4-methyl-2-pyridinyl)-4-quinolinyl)-6′-methoxy-5-(4-morpholinyl)-2,3′-bipyridin-3-amine], the Ki was 0.00318 µM.

Compound `Cc1c(N2CCC[C@@H]2C(=O)N(C)C)nc2cc(F)cc(F)c2c1Nc1cncc(N2CCOCC2)c1` [1-(5,7-difluoro-3-methyl-4-((5-(4-morpholinyl)-3-pyridinyl)-amino)-2-quinolinyl)-N,N-dimethyl-D-prolinamide] returned a Ki of 0.0103 µM.

On to `Cc1c(-c2ccccn2)nc2cc(F)cc(F)c2c1Nc1cncc(C2CCOCC2)c1` [5,7-difluoro-3-methyl-2-(2-pyridinyl)-N-(5-(tetrahydro-2H-pyran-4-yl)-3-pyridinyl)-4-quinolinamine], for which affinity was put at a Ki of 0.209 µM.

With `Cc1c(N2CCN(S(=O)(=O)c3cccc(F)c3)CC2)nc2cc(F)cc(F)c2c1Nc1cncc(N2CCOCC2)c1` [5,7-difluoro-2-(4-((3-fluorophenyl)sulfonyl)-1-piperazinyl)-3-methyl-N-(5-(4-morpholinyl)-3-pyridinyl)-4-quinolinamine], the affinity corresponds to a Ki of 0.0611 µM. Under `Cc1ccc(-c2nc3cc(F)cc(F)c3c(Nc3cc(N4CCOCC4)cnc3N3CCOCC3)c2C)cn1` [N-(2,5-di-4-morpholinyl-3-pyridinyl)-5,7-difluoro-3-methyl-2-(6-methyl-3-pyridinyl)-4-quinolinamine] stands 0.018 µM.

In the case of `Cc1c(-c2ccccn2)nc2cc(F)cc(F)c2c1Nc1cc(N2CCOCC2)cnc1-c1ccc(OC(F)F)cc1` [N-(2-(4-(difluoromethoxy)phenyl)-5-(4-morpholinyl)-3-pyridinyl)-5,7-difluoro-3-methyl-2-(2-pyridinyl)-4-quinolinamine], the affinity, expressed as Ki, was 0.00125 µM. The compound `Cc1c(-c2cc([N+](=O)[O-])ccc2S(C)(=O)=O)nc2cc(F)ccc2c1Nc1cc(N2CCOCC2)cnc1N1CCOCC1` [N-(2,5-di-4-morpholinyl-3-pyridinyl)-7-fluoro-3-methyl-2-(2-(methylsulfonyl)-5-nitrophenyl)-4-quinolinamine] showed a Ki of 0.00825 µM. In turn, `COc1ccc(-c2ccc(N3CCOCC3)cc2Nc2c(C)c(-c3cc(C)ccn3)nc3cc(F)cc(F)c23)cn1` [5,7-difluoro-N-(2-(6-methoxy-3-pyridinyl)-5-(4-morpholinyl)-phenyl)-3-methyl-2-(4-methyl-2-pyridinyl)-4-quinolinamine] yielded a Ki of 0.00359 µM. Take `Cc1c(-c2ccc(N3CCCC3)nc2)nc2cc(F)cc(F)c2c1Nc1cc(N2CCOCC2)cnc1N1CCOCC1` [N-(2,5-di-4-morpholinyl-3-pyridinyl)-5,7-difluoro-3-methyl-2-(6-(1-pyrrolidinyl)-3-pyridinyl)-4-quinolinamine]: the affinity, expressed as Ki, was 0.0468 µM. Under `Cc1c(N2CCN(C(=O)OC(C)(C)C)[C@H](C)C2)nc2cc(F)cc(F)c2c1Nc1cncc(N2CCOCC2)c1` [tert-butyl (2R)-4-(5,7-difluoro-3-methyl-4-((5-(4-morpholinyl)-3-pyridinyl)amino)-2-quinolinyl)-2-methyl-1-piperazinecarboxylate] stands 0.832 µM; under `CNC(=O)N1CCN(c2nc3cc(F)cc(F)c3c(Nc3cncc(N4CCOCC4)c3)c2C)CC1` [4-(5,7-difluoro-3-methyl-4-((5-(4-morpholinyl)-3-pyridinyl)-amino)-2-quinolinyl)-N-methyl-1-piperazinecarboxamide], 0.0165 µM; under `Cc1c(-c2ccc(N3CCC(F)(F)CC3)nc2)nc2cc(F)cc(F)c2c1Nc1cc(N2CCOCC2)cnc1N1CCOCC1` [2-(6-(4,4-difluoro-1-piperidinyl)-3-pyridinyl)-N-(2,5-di-4-morpholinyl-3-pyridinyl)-5,7-difluoro-3-methyl-4-quinolinamine], 0.0435 µM. Then `Cc1c(-c2ccc(N3CCC(O)C3)nc2)nc2cc(F)cc(F)c2c1Nc1cc(N2CCOCC2)cnc1N1CCOCC1` (stereo not drawn) [1-(5-(4-((2,5-di-4-morpholinyl-3-pyridinyl)amino)-5,7-difluoro-3-methyl-2-quinolinyl)-2-pyridinyl)-3-pyrrolidinol], with 0.0363 µM; and `Cc1c(N2CCN(CC(F)(F)F)CC2)nc2cc(F)cc(F)c2c1N(CC(F)(F)F)c1cncc(N2CCOCC2)c1` [5,7-difluoro-3-methyl-N-(5-(4-morpholinyl)-3-pyridinyl)-N-(2,2,2-trifluoroethyl)-2-(4-(2,2,2-trifluoroethyl)-1-piperazinyl)-4-quinolinamine], with 0.493 µM; and `Cc1c(N2CCN(S(=O)(=O)c3ccccc3)CC2)nc2cc(F)cc(F)c2c1Nc1cncc(N2CCOCC2)c1` [5,7-difluoro-3-methyl-N-(5-(4-morpholinyl)-3-pyridinyl)-2-(4-(phenylsulfonyl)-1-piperazinyl)-4-quinolinamine], with 0.0334 µM. Regarding `Cc1c(N2CCN(C(=O)OC(C)(C)C)CC2)nc2cc(F)cc(F)c2c1Nc1cc(N2CCOCC2)cnc1N1CCOCC1` [tert-butyl 4-(4-((2,5-di-4-morpholinyl-3-pyridinyl)amino)-5,7-difluoro-3-methyl-2-quinolinyl)-1-piperazinecarboxylate], the Ki worked out at 0.0341 µM. Compound `Cc1c(N2CCN(S(=O)(=O)c3ccccc3F)CC2)nc2cc(F)cc(F)c2c1Nc1cncc(N2CCOCC2)c1` [5,7-difluoro-2-(4-((2-fluorophenyl)sulfonyl)-1-piperazinyl)-3-methyl-N-(5-(4-morpholinyl)-3-pyridinyl)-4-quinolinamine] registered a Ki of 0.0664 µM. Compared with the last compound, the Ki is about 1.9-fold higher. Then `Cc1c(N2CCN(c3cccnc3)CC2)nc2cc(F)cc(F)c2c1Nc1cncc(N2CCOCC2)c1` [5,7-difluoro-3-methyl-N-(5-(4-morpholinyl)-3-pyridinyl)-2-(4-(3-pyridinyl)-1-piperazinyl)-4-quinolinamine], with 0.0118 µM; and `COc1cc(-c2nc3cc(F)cc(F)c3c(Nc3cc(N4CCOCC4)cnc3N3CCOCC3)c2C)ccn1` [N-(2,5-di-4-morpholinyl-3-pyridinyl)-5,7-difluoro-2-(2-methoxy-4-pyridinyl)-3-methyl-4-quinolinamine], with 0.0334 µM. Under `Cc1ccnc(-c2nc3cc(F)cc(F)c3c(Nc3cncc(N4CCOCC4)c3)c2C)c1` [5,7-difluoro-3-methyl-2-(4-methyl-2-pyridinyl)-N-(5-(4-morpholinyl)-3-pyridinyl)-4-quinolinamine] stands 0.0192 µM; under `Cc1ccc(S(C)(=O)=O)c(-c2nc3cc(F)cc(F)c3c(Nc3cncc(N4CCOCC4)c3)c2C)c1` [5,7-difluoro-3-methyl-2-(5-methyl-2-(methylsulfonyl)phenyl)-N-(5-(4-morpholinyl)-3-pyridinyl)-4-quinolinamine], 0.00135 µM.

`Cc1c(-c2ccccn2)nc2cccc(F)c2c1Nc1cc(N2CCOCC2)ccc1S(C)(=O)=O` [5-fluoro-3-methyl-N-(2-(methylsulfonyl)-5-(4-morpholinyl)-phenyl)-2-(2-pyridinyl)-4-quinolinamine] registered an inhibition constant Ki of 0.000485 µM. Under `COc1ccc(-c2ccc(N3CCOCC3)cc2Nc2c(C)c(-c3ccccn3)nc3cc(F)cc(F)c23)cc1` [5,7-difluoro-N-(4′-methoxy-4-(4-morpholinyl)-2-biphenylyl)-3-methyl-2-(2-pyridinyl)-4-quinolinamine] stands 0.0385 µM.

`Cc1c(-c2ccccn2)nc2c(Cl)c(F)ccc2c1Nc1cc(N2CCOCC2)cnc1N1CCOCC1` [8-chloro-N-(2,5-di-4-morpholinyl-3-pyridinyl)-7-fluoro-3-methyl-2-(2-pyridinyl)-4-quinolinamine] yielded an inhibition constant Ki of 0.0226 µM.

With `Cc1ccnc(-c2nc3cc(F)ccc3c(Nc3cc(N4CCOCC4)cnc3N3CCOCC3)c2C)c1` [N-(2,5-di-4-morpholinyl-3-pyridinyl)-7-fluoro-3-methyl-2-(4-methyl-2-pyridinyl)-4-quinolinamine], the affinity corresponds to a Ki of 0.0351 µM. `Cc1ccnc(-c2nc3cc(F)cc(F)c3c(Nc3cncc(-c4ccnc(N)n4)c3)c2C)c1` [N-(5-(2-amino-4-pyrimidinyl)-3-pyridinyl)-5,7-difluoro-3-methyl-2-(4-methyl-2-pyridinyl)-4-quinolinamine] had a Ki of 0.00534 µM. Compound `Cc1c(-c2ccccn2)nc2cc(F)cc(F)c2c1Nc1cc(N2CCOCC2)cnc1-c1ccc(O)cc1` [4-(3-((5,7-difluoro-3-methyl-2-(2-pyridinyl)-4-quinolinyl)-amino)-5-(4-morpholinyl)-2-pyridinyl)phenol] had a Ki of 0.000285 µM. Against the preceding compound, the Ki is about 19-fold lower. Compound `Cc1c(-c2cncc(Cl)c2)nc2cc(F)cc(F)c2c1Nc1cc(N2CCOCC2)cnc1N1CCOCC1` [2-(5-chloro-3-pyridinyl)-N-(2,5-di-4-morpholinyl-3-pyridinyl)-5,7-difluoro-3-methyl-4-quinolinamine] had a Ki of 0.0112 µM.

Values taken from US8940724B2, “Quinoline derivitives and their uses” (Amgen Inc., priority 2009, dated 2015).
